Experimental data from article PMC6002838 (The Journal of antibiotics, 2017).
Values after ≈ are worked out from the molar mass of the structure shown. Each block holds one compound with its values, some of them ahead of it.

Tests used:
[1] = target: MDM2-p53 complex (Homo sapiens, UniProt Q00987); experiment: MDM2-p53 complex inhibition assay; format: binding; conditions: for inhibition at 100 µM: read-out: Inhibition of MDM2-p53 complex formation (pre-treat)
[2] = system: KSHV LANA latency antigen; format: cell-based, Kaposi Sarcoma Herpesvirus (KSHV); conditions: 100 μM, 6 days, BC3 cells, flow cytofluorometry
[3] = Cytotoxicity on BC3 cells; format: cell-based; conditions: human
[4] = system: latent KSHV DNA in BC3 cells; experiment: qPCR detection of latent KSHV DNA; format: cell-based, Kaposi Sarcoma Herpesvirus (KSHV)
[5] = Cytotoxicity on THP-1 cells; format: cell-based; conditions: human, THP-1 cells (KSHV-negative macrophage cell line)
[6] = Cytotoxicity on HUVEC cells; format: cell-based; conditions: human, HUVEC cells (primary human umbilical cord endothelial cells)

Sequence of MDM2-p53 complex (Q00987 whole entry, one chain of several): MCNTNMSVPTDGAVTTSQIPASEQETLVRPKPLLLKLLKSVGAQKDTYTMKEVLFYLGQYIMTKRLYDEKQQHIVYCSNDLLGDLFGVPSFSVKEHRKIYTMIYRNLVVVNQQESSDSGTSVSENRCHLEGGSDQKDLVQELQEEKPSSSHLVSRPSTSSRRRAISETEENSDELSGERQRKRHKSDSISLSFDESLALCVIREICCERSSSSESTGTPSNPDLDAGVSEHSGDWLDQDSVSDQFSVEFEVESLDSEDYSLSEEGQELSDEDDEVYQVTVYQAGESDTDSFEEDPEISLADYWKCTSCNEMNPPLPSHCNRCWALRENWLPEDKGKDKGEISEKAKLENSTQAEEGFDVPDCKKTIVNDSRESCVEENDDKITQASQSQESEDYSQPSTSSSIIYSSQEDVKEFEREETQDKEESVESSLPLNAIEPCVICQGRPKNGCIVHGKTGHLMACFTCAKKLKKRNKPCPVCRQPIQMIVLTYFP

inhibition at 100 µM [1]: 50%
SMILES: Cc1cc(NS(=O)(=O)c2ccc(N)cc2)no1 [BC6, sulfamethoxazole]

SMILES: Nc1ccc(S(N)(=O)=O)cc1 [SA4, sulfanilamide]
inhibition at 100 µM [1]: 56%
LANA inhibition [2]: 78±6%
Residual fluorescence (RF) [2]: 21%

SMILES: [H]/N=C(/N)NS(=O)(=O)c1ccc(N)cc1 [SG3, sulfaguanidine]
inhibition at 100 µM [1]: ~48%
CC50 at 6 days [3]: 100 ± 25 µg/mL (≈ 467 µM)
SI (CC50/EC50) [4]: 4.76
CC50 at 6 days [5]: 125 ± 31 µg/mL (≈ 583 µM)
CC50 at 6 days [6]: 500 ± 125 µg/mL (≈ 2330 µM)

SMILES: Nc1ccc(S(=O)(=O)Nc2nccs2)cc1 [ST5, sulfathiazole]
Disruption of MDM2-p53 complex (post-treat) ([1]; 100 μM, compounds added after formation of the complex): about 48%
inhibition at 100 µM [1]: ~70%
CC50 at 6 days [3]: 100 ± 25 µg/mL (≈ 392 µM)
SI (CC50/EC50) [4]: 16.6
CC50 at 6 days [5]: 30 ± 15 µg/mL (≈ 117 µM)
CC50 at 6 days [6]: 250 ± 62 µg/mL (≈ 979 µM)

SMILES: CS(=O)(=O)Nc1ccc([N+](=O)[O-])cc1Oc1ccccc1 [Nimesulide, nimesulide]
LANA inhibition [2]: 54±5%
Residual fluorescence (RF) [2]: about 46%
